How the values were obtained:
PASK [1] = target: PASK (Homo sapiens (Human), UniProt Q96RG2); assay: PAS Kinase FRET Assay; assay type: biochemical; settings: TR-FRET assay; read-out: IC50 Kinase Domain
Outline: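 Reaction buffer: 50 mM HEPES, 10 mM MgCl2, 1 mM EGTA, 2 mM DTT, 0.01% Tween-20. Test compounds (eleven-point series prepared at 4× final) preceded PASK and substrate/ATP. Reaction ran 2 h at 25 °C in the dark, then stopped. Phospho-ULight peptide detected by Eu-antibody TR-FRET, 665/615 nm ratio.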

CK2a2 = CK2a2 (Homo sapiens (Human), UniProt P19784); assay: Biochemical Assay for CK2 Activity; settings: 33P-ATP radiochemical assay; read-out: IC50 CK2 a2
Protocol: Biochemical Assay for CK2 Activity
Purified CK2a2 (NP_001887; human full-length protein, GST tagged) from insect cells (final concentration 1.2 nM) is added to freshly prepared Base Reaction Buffer containing 20 mM Hepes (pH 7.5), 10 mM MgCl2, 1 mM EGTA, 0.02% Brij35, 0.02 mg/ml BSA, 0.1 mM Na3VO4, 2 mM DTT, 1% DMSO and CK2 sub [RRRDDDSDDD] (20 μM final). Test compounds in DMSO are then added and the mixture, followed by delivery of ^33P-ATP (specific activity 0.01 μCi/μl final) to initiate the reaction. The kinase reaction is incubated for 120 min at room temperature. The entire reaction mixture is washed through onto a P81 Phosphocellulose paper and washed three times for 10 minutes in 75 mM phosphoric acid and once in methanol prior to drying and scintillation counting.

PASK [2] = target: PASK (UniProt #Q96RG2; residues 879-1323) (Homo sapiens (Human), UniProt Q96RG2); assay: PASK ATP Radiochemical Assay; assay type: biochemical; settings: 33P-ATP radiochemical assay; read-out: IC50 Kinase Domain
Protocol: PASK ATP Radiochemical Assay Purified PASK (UniProt #Q96RG2; human recombinant N-terminal GST tagged construct, residues 879-1323) from insect cells (final concentration 5 nM) is added to freshly prepared Base Reaction Buffer containing 20 mM HEPES (pH 7.5), 10 mM MgCl2, 1 mM EGTA, 0.02% Brij35, 0.02 mg/ml BSA, 0.1 mM Na3VO4, 2 mM DTT, 1% DMSO and Myelin Basic Protein (20 μM final). Test compounds in DMSO are then added and the mixture, followed by delivery of ^33P-ATP (specific activity 0.01 μCi/μl final) to initiate the reaction. The kinase reaction is incubated for 120 min at room temperature. The entire reaction mixture is washed through onto a P81 Phosphocellulose paper and washed three times for 10 minutes in 75 mM phosphoric acid and once in methanol prior to drying and scintillation counting.

Chain of PASK (Homo sapiens (Human), UniProt Q96RG2) (Q96RG2 999-1251): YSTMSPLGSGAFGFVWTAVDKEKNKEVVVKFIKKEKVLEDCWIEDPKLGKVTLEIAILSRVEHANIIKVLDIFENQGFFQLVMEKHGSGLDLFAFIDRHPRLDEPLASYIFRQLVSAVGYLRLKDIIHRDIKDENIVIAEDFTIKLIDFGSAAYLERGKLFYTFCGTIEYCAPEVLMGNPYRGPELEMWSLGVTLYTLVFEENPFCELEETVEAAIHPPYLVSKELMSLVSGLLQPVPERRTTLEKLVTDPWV
Chain of PASK (UniProt #Q96RG2; residues 879-1323) (Homo sapiens (Human), UniProt Q96RG2) (Q96RG2 879-1323): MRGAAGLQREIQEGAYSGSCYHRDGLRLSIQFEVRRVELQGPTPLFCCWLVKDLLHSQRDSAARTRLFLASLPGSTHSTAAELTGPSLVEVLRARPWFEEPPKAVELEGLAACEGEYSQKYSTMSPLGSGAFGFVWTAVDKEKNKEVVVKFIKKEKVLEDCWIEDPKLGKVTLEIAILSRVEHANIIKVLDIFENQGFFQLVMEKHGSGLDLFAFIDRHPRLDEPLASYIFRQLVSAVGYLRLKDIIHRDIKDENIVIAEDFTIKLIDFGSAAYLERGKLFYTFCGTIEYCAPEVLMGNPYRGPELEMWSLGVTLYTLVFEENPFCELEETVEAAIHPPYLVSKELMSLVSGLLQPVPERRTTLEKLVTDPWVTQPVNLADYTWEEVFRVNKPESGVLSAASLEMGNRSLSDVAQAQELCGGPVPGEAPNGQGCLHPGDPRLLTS
Chain of CK2a2 (P19784 whole entry): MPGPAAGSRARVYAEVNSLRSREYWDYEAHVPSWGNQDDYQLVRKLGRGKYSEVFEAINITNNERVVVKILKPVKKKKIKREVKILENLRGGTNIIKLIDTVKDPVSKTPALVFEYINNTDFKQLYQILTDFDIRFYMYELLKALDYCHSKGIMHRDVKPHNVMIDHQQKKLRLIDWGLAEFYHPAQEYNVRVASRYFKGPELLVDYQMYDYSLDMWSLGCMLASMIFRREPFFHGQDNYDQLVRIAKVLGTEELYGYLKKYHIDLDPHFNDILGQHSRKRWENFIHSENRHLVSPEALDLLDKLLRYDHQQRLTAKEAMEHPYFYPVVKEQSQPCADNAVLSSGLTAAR

| Compound | IC50 (PASK [1]) [µM] | IC50 (CK2a2) [µM] | IC50 (PASK [2]) [µM] |
| --- | --- | --- | --- |
| O=c1cc(-c2ccc3c(c2)OCCO3)[nH]c2c(-c3ccc(N4CCCC4)nc3)cnn12 [Example 119, 5-(2,3-Dihydrobenzo[b][1,4]dioxin-6-yl)-3-(6-(pyrrolidin-1-yl)pyridin-3-yl)pyrazolo[1,5-a]pyrimidin-7(4H)-one] | ≤ 10 | ≤ 10 | ≤ 10 |
| COc1ccc2c(c1)CCc1c-2[nH]c2c(-c3ccccn3)cnn2c1=O [Example 121, 3-Methoxy-11-(pyridin-2-yl)-5,6-dihydrobenzo[h]pyrazolo[5,1-b]quinazolin-7(12H)-one] | ≤ 10 | ≤ 10 | ≤ 10 |
| COc1ccc(-c2cc(=O)n3nc(O)c(-c4ccccn4)c3[nH]2)c(OC)c1 [Example 122, 5-(2,4-Dimethoxyphenyl)-2-hydroxy-3(pyridin-2-yl)pyrazolo[1,5-a]pyrimidin-7(4H)-one] | ≤ 10 | ≥ 10 | ≤ 10 |
| O=c1cc(-c2ccc(Cl)cc2)[nH]c2c(-c3ccccn3)c(O)nn12 [Example 123, 5-(4-Chlorophenyl)-2-hydroxy-3-(pyridin-2-yl)pyrazolo[1,5-a]pyrimidin-7(4H)-one] | ≤ 10 | ≥ 10 | ≤ 10 |
| O=c1cc(-c2ccc(F)cc2)[nH]c2c(-c3ccccn3)cnn12 [Example 125, 5-(4-Fluorophenyl)-3-(pyridin-2-yl)pyrazolo[1,5-a]pyrimidin-7(4H)-one] | ≤ 10 | ≤ 10 | ≤ 10 |
| O=c1cc(-c2ccc(Cl)c(Cl)c2)[nH]c2c(-c3ccccn3)cnn12 [Example 126, 5-(3,4-Dichlorophenyl)-3-(pyridin-2-yl)pyrazolo[1,5-a]pyrimidin-7(4H)-one] | ≤ 10 | ≤ 10 | ≤ 10 |
| O=c1cc(-c2ccc3occc3c2)[nH]c2c(-c3ccccc3)c(O)nn12 [Example 127, 5-(Benzofuran-5-yl)-2-hydroxy-3-phenylpyrazolo[1,5-a]pyrimidin-7(4H)-one] | ≤ 10 | ≤ 10 | ≤ 10 |
| O=c1cc(-c2ccc(Cl)cc2)[nH]c2c(-c3cccnc3)c(O)nn12 [Example 128, 5-(4-Chlorophenyl)-2-hydroxy-3-(pyridin-3-yl)pyrazolo[1,5-a]pyrimidin-7(4H)-one] | ≤ 10 | ≥ 10 | ≤ 10 |
| O=c1cc(-c2ccc3c(c2)CCO3)[nH]c2c(-c3ccccn3)c(O)nn12 [Example 129, 5-(2,3-Dihydrobenzofuran-5-yl)-2-hydroxy-3-(pyridin-2-yl)pyrazolo[1,5-a]pyrimidin-7(4H)-one] | ≤ 10 | ≥ 10 | ≤ 10 |
| O=c1cc(-c2ccc3c(c2)CCO3)[nH]c2c(-c3cccnc3)c(O)nn12 [Example 130, 5-(2,3-Dihydrobenzofuran-5-yl)-2-hydroxy-3-(pyridin-3-yl)pyrazolo[1,5-a]pyrimidin-7(4H)-one] | ≤ 10 | ≤ 10 | ≤ 10 |
| O=c1cc(-c2ccc3occc3c2)[nH]c2c(-c3ccccn3)c(O)nn12 [Example 131, 5-(Benzofuran-5-yl)-2-hydroxy-3-(pyridin-2-yl)pyrazolo[1,5-a]pyrimidin-7(4H)-one] | ≤ 10 | ≤ 10 | ≤ 10 |
| O=c1cc(-c2ccc3c(c2)OCO3)[nH]c2c(Cc3ccccc3)cnn12 [Example 133, 5-(Benzo[d][1,3]dioxol-5-yl)-3-benzylpyrazolo[1,5-a]pyrimidin-7(4H)-one] | ≤ 10 | ≤ 10 | ≤ 10 |
| COc1ccccc1-c1cc(=O)n2ncc(-c3ccccn3)c2[nH]1 [Example 135, 5-(2-Methoxyphenyl)-3-(pyridin-2-yl)pyrazolo[1,5-a]pyrimidin-7(4H)-one] | ≤ 10 | ≤ 10 | ≤ 10 |
| O=c1cc(-c2ccc(F)cc2)[nH]c2c(-c3ccccn3)c(O)nn12 [Example 137, 5-(4-Fluorophenyl)-2-hydroxy-3-(pyridin-2-yl)pyrazolo[1,5-a]pyrimidin-7(4H)-one] | ≤ 10 | ≥ 10 | ≤ 10 |
| Nc1nn2c(=O)cc(-c3ccc(Cl)cc3)[nH]c2c1-c1ccccc1 [Example 141, 2-Amino-5-(4-chlorophenyl)-3-phenylpyrazolo[1,5-a]pyrimidin-7(4H)-one] | ≤ 10 | ≤ 10 | ≤ 10 |
| Nc1nn2c(=O)cc(-c3ccc4c(c3)OCCO4)[nH]c2c1-c1ccccc1 [Example 142, 2-Amino-5-(2,3-dihydrobenzo[b][1,4]dioxin-6-yl)-3-phenylpyrazolo[1,5-a]pyrimidin-7(4H)-one] | ≤ 10 | ≤ 10 | ≤ 10 |
| CN(Cc1ccccc1)C(=O)c1cnn2c(=O)cc(-c3ccc4c(c3)OCCO4)[nH]c12 [Example 143, N-Benzyl-5-(2,3-dihydrobenzo[b][1,4]dioxin-6-yl)-N-methyl-7-oxo-4,7-dihydropyrazolo[1,5-a]pyrimidine-3-carboxamide] | ≤ 10 | ≤ 10 | ≤ 10 |
| O=C(NCc1ccccc1)c1cnn2c(=O)cc(-c3ccc(Cl)cc3)[nH]c12 [Example 144, N-Benzyl-5-(4-chlorophenyl)-7-oxo-4,7-dihydropyrazolo[1,5-a]pyrimidine-3-carboxamide] | ≤ 10 | ≤ 10 | ≤ 10 |
| CCCNC(=O)c1cnn2c(=O)cc(-c3ccc4c(c3)OCCO4)[nH]c12 [Example 145, 5-(2,3-Dihydrobenzo[b][1,4]dioxin-6-yl)-7-oxo-N-propyl-4,7-dihydropyrazolo[1,5-a]pyrimidine-3-carboxamide] | ≤ 10 | ≤ 10 | ≤ 10 |
| O=c1cc(-c2ccc3occc3c2)[nH]c2c(-c3cccnc3)c(O)nn12 [Example 147, 5-(Benzofuran-5-yl)-2-hydroxy-3-(pyridin-3-yl)pyrazolo[1,5-a]pyrimidin-7(4H)-one] | ≤ 10 | ≤ 10 | ≤ 10 |
| Nc1nn2c(=O)cc(-c3ccc4c(c3)OCCO4)[nH]c2c1-c1ccccn1 [Example 148, 2-Amino-5-(2,3-dihydrobenzo[b][1,4]dioxin-6-yl)-3-(pyridin-2-yl)pyrazolo[1,5-a]pyrimidin-7(4H)-one] | ≤ 10 | ≤ 10 | ≤ 10 |
| Nc1nn2c(=O)cc(-c3ccc4c(c3)OCO4)[nH]c2c1-c1ccccn1 [Example 150, 2-Amino-5-(benzo[d][1,3]dioxol-5-yl)-3-(pyridin-2-yl)pyrazolo[1,5-a]pyrimidin-7(4H)-one] | ≤ 10 | ≤ 10 | ≤ 10 |
| Nc1nn2c(=O)cc(-c3ccc(Cl)cc3)[nH]c2c1-c1ccccn1 [Example 152, 2-Amino-5-(4-chlorophenyl)-3-(pyridin-2-yl)pyrazolo[1,5-a]pyrimidin-7(4H)-one] | ≤ 10 | ≤ 10 | ≤ 10 |
| CC(=O)Nc1nn2c(=O)cc(-c3ccc4c(c3)OCO4)[nH]c2c1-c1ccccn1 [Example 155, N-(5-(Benzo[d][1,3]dioxol-5-yl)-7-oxo-3-(pyridin-2-yl)-4,7-dihydropyrazolo[1,5-a]pyrimidin-2-yl)acetamide] | ≤ 10 | ≤ 10 | ≤ 10 |
| CCNc1nn2c(=O)cc(-c3ccc4c(c3)OCO4)[nH]c2c1-c1ccccn1 [Example 156, 5-(Benzo[d][1,3]dioxol-5-yl)-2-(ethylamino)-3-(pyridin-2-yl)pyrazolo[1,5-a]pyrimidin-7(4H)-one] | ≤ 10 | ≤ 10 | ≤ 10 |
| O=c1cc(-c2ccc3c(c2)OC(F)(F)O3)[nH]c2c(-c3ccccn3)cnn12 [Example 158, 5-(2,2-Difluorobenzo[d][1,3]dioxol-5-yl)-3-(pyridin-2-yl)pyrazolo[1,5-a]pyrimidin-7(4H)-one] | ≤ 10 | ≤ 10 | ≤ 10 |
| Nc1nn2c(=O)cc(-c3ccc4[nH]ncc4c3)[nH]c2c1-c1ccccn1 [Example 159, 2-Amino-5-(1H-indazol-5-yl)-3-(pyridin-2-yl)pyrazolo[1,5-a]pyrimidin-7(4H)-one] | ≤ 10 | ≤ 10 | ≤ 10 |
| O=c1cc(-c2ccc3[nH]ncc3c2)[nH]c2c(-c3ccccn3)cnn12 [Example 160, 5-(1H-Indazol-5-yl)-3-(pyridin-2-yl)pyrazolo[1,5-a]pyrimidin-7(4H)-one] | ≤ 10 | ≤ 10 | ≤ 10 |

Reference: patent publication US10953012B2, “Heterocyclic compounds for the inhibition of pask” (BioEnergenix LLC, priority 2011, dated 2021)
